Key:
[1] = tested on: Salmonella typhmurium TA98; assay: Mutagenicity test (Ames test); settings: TA98, in the presence or absence of S9 mix; FIG. 11
[2] = tested on: IL-6, TNF-α, IFN-γ in mouse plasma; assay: Measurement of IL-6, TNF-α and IFN-γ released into peripheral blood of test compound administered mouse; settings: 100 μg/mouse intravenous, two hours later; for IL-6-releasing activity (mouse plasma IL-6 concentration) compared with TDCM: FIG. 6; for IFN-γ-releasing activity (mouse plasma IFN-γ concentration) compared with TDCM: FIG. 7
[3] = tested on: Welch bacillus (Type A; NTCT8237); format: in vivo; settings: 100 μg/mouse i.p. three hours before Welch bacillus 2.4×10^7 cells/mouse i.p.
Protocol: As test compounds, 1 mg each of the compound synthesized by the method described in Production Example α-1 and TDCM were weighed. Emulsion solutions of the test compounds (1 mg/ml) were prepared in the same manner as described above.
[…] of Brain Heart Infusion (BHI) (Difco) powders were dissolved in 200 ml of distilled water. 40 ml of the obtained solution (hereinafter this solution is referred to as a “BHI medium”) was withdrawn with a measuring pipette, and it was then added to a 200-ml flask, followed by performing a high-pressure steam sterilization (121° C., 20 minutes). In addition, 5 ml of the BHI medium was added to two screw-top test tubes, and they were then subjected to a high-pressure steam sterilization. Moreover, a glass tube-equipped rubber plug (with a cotton plug) and a glass tube were also subjected to a high-pressure steam sterilization. In a clean bench, an appropriate amount of bacteria for preservation, which had grown on a cooked meat medium, was collected with a sterilized Pasteur pipette, and it was then inoculated on the BHI medium in the aforementioned sterilized screw-top test tube. Subsequently, it was incubated at 37° C. overnight.
In a clean bench, bacteria that had grown in the screw-top test tube (wherein the inside of the […] in which bacteria had grown became clouded, and gas was generated) was transferred into a 200-ml Erlenmeyer flask, which contained 40 ml of BHI medium. A glass tube was inserted into the medium, so as to carry out nitrogen substitution for 10 minutes. Subsequently, the glass tube-equipped rubber plug (with a cotton plug) was equipped in the Erlenmeyer flask (since Welch bacillus generates gas, it is necessary to make an air vent), and incubation was then carried out at 37° C. for 4 to 5 hours. Thereafter, the cultured Welch bacillus was transferred into a centrifuge tube, it was then centrifuged (9000 rpm, 15 minutes), and the supernatant was then removed. 20 ml of sterilized normal saline solution was added to the precipitate, so that the bacteria were suspended therein. The suspension was centrifuged (9000 rpm, 15 minutes), and the supernatant was then removed.
Mice (ICR, 6-week-old) were divided into three groups, and the following test was then carried out.
An emulsion solution containing the test compound, an emulsion solution containing TDCM, or an emulsion solution alone, which was to be used as a control, was intraperitoneally administered in an amount of 100 μg/mouse to a group of four mice (100 μl/mouse, in the case of the emulsion solution alone). Three hours later, Welch bacillus (2.4×10^7 cells/mouse) was intraperitoneally administered to the mice. Thereafter, the condition of the mice was observed.

[4] = tested on: Welch bacillus toxin (recombinant α-toxin); settings: in vivo, ip
THP-1 cells = assay: Analysis of cytotoxicity to THP-1 cells using trypan blue; format: cell-based, human; settings: treated for 2 hours and for 24 hours; FIG. 10
Protocol: The cultured THP-1 cells were transferred into a 50-ml centrifuge tube in a clean bench. The cells were then centrifuged at 1,000 rpm for 5 minutes at 20° C., and the supernatant was then removed. […] 10 μl of this cell suspension was added to a sterile Eppendorf tube, to which 990 μl of serum-free RPMI 1640 medium had previously been added, so that the solution was 100-fold diluted. The number of cells in 10 μl of the 100-fold diluted solution was counted with a blood cell counter, and the cell suspension was diluted with serum-free RPMI 1640 medium to a cell density of 1×10^7 cells/ml.
A test compound (Example 9)/DMSO solution, or DMSO was added to 100 μl of RPMI medium to a concentration of 200 μM. Thereafter, ultrasonic wave was applied to the mixture for 5 seconds. It is to be noted that a test compound, 6-O-(2-decyldecanoyl)-α-glucose (hereinafter referred to as a “control compound B”), and TDCM were used to prepare positive controls in the same manner as described above. In addition, a negative control was prepared by adding no test compounds (vehicle). […] Subsequently, 20 μl of 0.3% trypan blue/PBS (−) was added to the reaction solution so as to suspend the reaction solution therein, and thereafter, the survival rate of the cells was immediately analyzed using a cell number measuring apparatus (CYRORECON).

For `Nc1ccc2cc3ccccc3cc2c1` [2-aminoanthracene, reference compound], the “mutagenicity (Ames test, number of His colonies)” value [1] was “positive”.
For `CCCCCCCCCCCCCC(CCCCCCCCCCCCC)CC(=O)OCC1O[C@H](O[C@H]2OC(COC(=O)CC(CCCCCCCCCCCCC)CCCCCCCCCCCCC)[C@@H](O)C(O)C2O)C(O)C(O)[C@@H]1O` (stereo partly drawn) [Example 13, 6,6′-bis-O-(3-tridecylhexadecanoyl)-α,α′-trehalose], the “IL-6-releasing activity (mouse plasma IL-6 concentration) compared with TDCM” value [2] was “approximately a half of” and the “IFN-γ-releasing activity (mouse plasma IFN-γ concentration) compared with TDCM” value [2] was “approximately a half of”.
`CCCCCCCCCCCCCCC(CCCCCCCCCCCCCC)CC(=O)OCC1O[C@H](O[C@H]2OC(COC(=O)CC(CCCCCCCCCCCCCC)CCCCCCCCCCCCCC)[C@@H](O)C(O)C2O)C(O)C(O)[C@@H]1O` (stereo partly drawn) [Example 14, 6,6′-bis-O-(3-tetradecylheptadecanoyl)-α,α′-trehalose] was tested, and the “IL-6-releasing activity (mouse plasma IL-6 concentration) compared with TDCM” value [2] was “approximately equivalent to” and the “IFN-γ-releasing activity (mouse plasma IFN-γ concentration) compared with TDCM” value [2] was “approximately equivalent to”.
`CCCCCCCCCCCCCCC[C@@H](O)[C@@H](CCCCCCCCCCCCCC)C(=O)OC[C@H]1O[C@H](O[C@H]2O[C@H](COC(=O)[C@H](CCCCCCCCCCCCCC)[C@H](O)CCCCCCCCCCCCCCC)[C@@H](O)[C@H](O)[C@H]2O)[C@H](O)[C@@H](O)[C@@H]1O` [TDCM, trehalose dicorynomycolate, reference compound] was tested, and the “Number of surviving mice/number of treated mice, 2 hours later” value ([3]; 2 hours later) was 4/4, the “Number of surviving mice/number of treated mice, 6 hours later” value ([3]; 6 hours later) was 4/4 and the “Number of surviving mice/number of treated mice, 12 hours later” value ([3]; 12 hours later) was 4/4. For the same compound, the “Number of surviving mice/number of treated mice, 24 hours later” value ([3]; 24 hours later) was 4/4, the “Number of surviving mice/number of treated mice, 48 hours later” value ([3]; 48 hours later) was 4/4 and the “Number of surviving mice/number of treated mice, 2 hours later” value [4] was 4/4. For the same compound, the “Number of surviving mice/number of treated mice, 6 hours later” value [4] was 4/4, the “Number of surviving mice/number of treated mice, 12 hours later” value [4] was 4/4 and the “Number of surviving mice/number of treated mice, 24 hours later” value [4] was 2/4. The “Number of surviving mice/number of treated mice, 48 hours later” value [4] was 2/4.
In the case of `CCCCCCCCCCC(CCCCCCCC)C(=O)OC[C@H]1O[C@H](O)[C@H](O)[C@@H](O)[C@@H]1O` (stereo partly drawn) [control compound B, 6-O-(2-decyldecanoyl)-α-glucose, reference compound], the “cytotoxicity to THP-1 cells (survival rate, trypan blue staining)” value (THP-1 cells) is reported as “cytotoxicity was observed”.
